Key:
[1] = Panel test of body-odor-like smell (KAREI-SHU), 9-hexadecanoic acid heated (Experiment 3); design: key: +++: the same or higher level of odor; ++: slightly lower level of odor; +: clearly lower level of odor than that of the control system; details: compared with control system
Excerpt: Upon the HSG samples, the level of a body-odor-like smell was examined on a panel test consisting of six professional panels; the panels directly smelled the samples from each glass vial and judged the level of the smells for each samples with test saccharides based on the following four ranks, i.e., the same or higher level of odor (+++), slightly lower level of odor (++), clearly lower level of odor (+), and odorless (−) as compared with the control system. Summing up the data from the panels, the samples tested were totally evaluated.
The content of 2-nonenal in HSG was measured by GC similarly as in Experiment 1 except that 9-hexadecanoic acid or palmitoleic acid was used as a fatty acid and 2-nonenal, a volatile aldehyde, was used as a standard substance. The level of body-odor-like smell, particularly with respect to KAREI-SHU, in each sample was evaluated by panel test in accordance with the method in Experiment 1.

healthy volunteer = test: Test on volunteer: volatile aldehydes collected from worn underwear (Experiment 7); format: in vivo, human
Procedure: The influence of saccharides on the formation of body odor from living bodies by applying trehalose to a healthy volunteer, under the following schedule: After soaking a towel in a 2% (w/w) aqueous trehalose solution, which had been boiled for five minutes and then cooled to about 40° C., at 10:30 a.m. on the day of starting a test, the volunteer as in a test system was allowed to wipe their whole body with the towel squeezed roughly to apply trehalose on the body surface, and made them to spend their daily life as usual after the drying of the applied aqueous trehalose solution. Thereafter, they were made to take a bath at 9 p.m. as usual and allowed to sufficiently wash their whole body including their hair. Just after bathing, a fresh preparation of aqueous trehalose solution was applied on the body surface similarly as above, then after drying the aqueous trehalose solution, they were made to wear an underwear and allowed to spend their daily life. At 5:30 p.m. on the next day after the initiation of the test, their worn underwear was collected, and tested for the presence and the content of volatile aldehydes in the underwear by the following procedures. As a control, on other day, the volunteer was allowed to wear a similar underwear as used in the test system according to the above test system except for replacing the aqueous trehalose solution with water, and then made them to spend their daily life, followed by collecting their underwear and analyzing them by the following procedures similarly as above.
As shown schematically in FIG. 1, an underwear 5 worn by the volunteer in each system was sealed after placed in a sealing vessel 1 immediately after the collection, and the gas in the sealing vessel 1 was pumped by an air pump 3 into a cartridge 4, “Superclean LpDNPH Cartridge”, with a lot No. LpDNPH S10L commercialized by Supelco Inc., Tokyo, Japan, to collect volatile aldehydes through a pipe 2 at ambient temperature of about 20° C., while the gas was continuously circulated through the sealed vessel 1 through the pipe 2 for one hour to collect in the cartridge 4 volatile aldehydes, as DNPH (dinitrophenylhydrazine), contained in the underwear 5. Thereafter, the cartridge 4 was removed and received two milliliters of acetonitrile by passing therethrough, followed by collecting an eluate from the cartridge 4. The collected eluate was analyzed on GC as follows.
“GAS CHROMATOGRAPH GC-14B”, as a GC apparatus produced by Shimadzu Corporation, Tokyo, Japan; and “TC-Wax CAPILLARY COLUMN”, a column for analysis, having 0.53 mm in inner diameter, 25 m in length, and 0.5 μm in thickness, produced by GL Sciences, Inc., Tokyo, Japan, were used. Helium gas was used as a carrier gas at a flow rate of 1 ml/min, and the temperature for a sample injection part was set to 240° C., while keeping a column thermostatic bath temperature at 50° C. for five minutes and then increasing the temperature up to 200° C. at a rate of 5° C./min. Using two microliters of an analysis sample as an injection volume, 1/30 volume of the injected sample was analyzed (split 1:30) by passing through the column for analysis while controlling the flow rate of the carrier gas at the sample injection part and using a hydrogen flame ionization detector for detection. As standard specimens, DNPH derivatives for each 2-nonenal, 2-octenal, hexanal, and nonanal were used and separately analyzed on GC under the conditions shown above. Based on the gas chromatograms from the above analyses, the content (μg) of respective 2-nonenal, 2-octenal. hexanal, and nonanal, collected form the underwears in the test system and control, was determined.

SMILES: OC[C@H]1O[C@@](CO)(O[C@H]2O[C@H](CO)[C@@H](O)[C@H](O)[C@H]2O)[C@@H](O)[C@@H]1O [Sucrose, sucrose]
- Evaluation of panel test [1]: +++

SMILES: OC[C@@H](O)[C@@H](O[C@H]1O[C@H](CO)[C@@H](O)[C@H](O)[C@H]1O)[C@H](O)[C@@H](O)CO [Maltitol, maltitol]
- formation of body odor (healthy volunteer; experiment using maltitol in place of trehalose): well inhibits the formation of body odor similarly as trehalose

SMILES: OC[C@H]1O[C@H](O[C@H]2O[C@H](CO)[C@@H](O)[C@H](O)[C@H]2O)[C@H](O)[C@@H](O)[C@@H]1O [Trehalose, trehalose]
- Content of volatile aldehydes collected from underwear, 2-Nonenal (healthy volunteer; 2% (w/w) aqueous trehalose solution applied on the body surface, control 7.05): 3.72 µg
- Content of volatile aldehydes collected from underwear, Hexanal (healthy volunteer; 2% (w/w) aqueous trehalose solution on the body surface, control 5.39, * means no detection): undetectable level
- Content of volatile aldehydes collected from underwear, 2-Octenal (healthy volunteer; 2% (w/w) aqueous trehalose solution on the body surface, control 8.61, * means no detection): undetectable level
- Content of volatile aldehydes collected from underwear, Nonanal (healthy volunteer; 2% (w/w) aqueous trehalose solution on the body surface, control 10.93, * means no detection): undetectable level
- 2-nonenal in underwear, level relative to control (healthy volunteer; trehalose applied on the body surface versus water control): about 53%

From patent publication US6497862B2, “Composition for inhibiting body odor and uses thereof” (Kabushiki Kaisha Hayashibara, priority 2000, dated 2002)
